In US12622933B2, “Method for improving eye condition” (LAIMU CORPORATION, priority 2022, dated 2026):

Test system: dry eye patient
Assay: Peroral administration to a dry eye patient
Assay type: in vivo, human
Details: perorally administered to a dry eye patient; no method or data given

For hyaluronic acid, the “eye condition improving effect” value was “any significant eye condition improving can not be attained”.
